Where two headings read alike, the source gives them in different places.

By MIC50 is commonly meant an inhibitory concentration at the 50% level, which refers to growth in some studies and to a panel of isolates in others.

Assay [1] has as its system Linezolid-Resistant Staphylococcus aureus Isolates. Kind of assay: MIC assay (NCCLS broth dilution), LRSA isolates. The format is cell-based. The settings on record: for MIC / MIC50: Staphylococcus aureus; for MIC50 / MIC Range: 3 LRSA isolates, combinations at 2.5:1. The method, then:
(§1) Antibiotics: novobiocin, tetracycline, minocycline, oxacillin, and vancomycin were all purchased from Sigma-Aldrich. Linezolid was obtained from Pfizer, Inc. Novobiocin/tetracycline and novobiocin/minocycline were tested in a 2.5:1 ratio to mimic the serum levels. (Vavra, J. J., 1967, Development of resistance to novobiocin, tetracycline, and novobiocin-tetracycline combinations in Staphylococcus aureus populations, J. Bacteriol 93(3):801). Compounds were tested across a concentration range consisting of 11 two-fold serial dilutions of test agent.
(§2) Stock solutions were prepared in sterile deionized water; novobiocin stock concentration was 1600 μg/mL and all other drugs stock solutions were prepared at 640 μg/mL. The stock solutions were allowed to sit at room temperature for one hour to auto-sterilize prior to use in the test. All compounds were in solution in water. The control agent was vancomycin hydrochloride, Sigma Chemical Lot # 015K0825.
(§3) The test organisms for the assay were 52 MSSA, 52 MRSA, 8 VISA, 7 VISE, and 3 LRSA isolates. Quality control strains included Staphylococcus aureus 0100 (ATCC 29213) and Enterococcus faecalis (ATCC 29212).
(§4) The MIC assay was performed according to published NCCLS guidelines. (National Committee for Clinical Laboratory Standards, Methods for Dilution Antimicrobial Susceptibility Tests for Bacteria that Grow Aerobically; Approved Standard-Sixth Edition, NCCLS Document M7-A6 [ISBN 1-56238-486-4], NCCLS, 940 West Valley Road, Suite 1400, Wayne, Pa. 19087-1898 USA, 2003). The test medium was Mueller Hinton II Broth for all organisms.
A general note: Broth dilution looks for growth in wells or tubes with falling amounts of substance.

Assay [2] concerns Enterococcus faecalis (ATCC 29212). The settings on record: E. faecalis ATCC 29212; accepted quality control range; cited from earlier work.
Assay [3] concerns Staphylococcus aureus 0100 (ATCC 29213). The settings on record: S. aureus ATCC 29213; accepted quality control range; cited from earlier work.
The test system of assay [4] is Vancomycin-intermediate Staphylococcus aureus Isolates. Kind of assay: MIC assay (NCCLS broth dilution), VISA isolates. The format is cell-based. Conditions: for MIC Range / MIC50: 2 VISA isolates, combinations at 2.5:1, given as NB/partner; for MIC / MIC50: Staphylococcus aureus; for MIC: read-out: Minimal Inhibitory Concentration. As for the experimental part:
as §1, §2, §3, §4

Assay [5] concerns Staphylococcus aureus 0100 (ATCC 29213). Kind of assay: MIC assay, quality control strain S. aureus ATCC 29213. The format is cell-based. As for the experimental part:
as §1, §2, §3, §4

For assay [6], the system named is Unconfirmed Vancomycin-intermediate Staphylococcus aureus Isolates. Kind of assay: MIC assay (NCCLS broth dilution), unconfirmed VISA isolates. The format is cell-based. The settings on record: for MIC Range / MIC50: 6 unconfirmed VISA isolates (vancomycin MIC 4 ug/ml), combinations at 2.5:1; for MIC / MIC50: Staphylococcus aureus; for MIC: read-out: Minimal Inhibitory Concentration. The method, then:
as §1, §2, §3, §4

Where [7] appears, read: LRSA isolate 1651, 24FEB06, read-out: Minimal Inhibitory Concentration.
The mark [8] stands for this setting: LRSA isolate 1652, 24FEB06, read-out: Minimal Inhibitory Concentration.
The mark [9] stands for this setting: LRSA isolate 1725, 24FEB06, read-out: Minimal Inhibitory Concentration.
The mark [10] stands for this setting: ATCC29213, S. aureus ATCC 29213, repeat runs 22FEB06-09MAR06, combinations at 2.5:1, read-out: Minimal Inhibitory Concentration, quality control.
Where [11] appears, read: Unconfirmed VISA isolate 2013, 03MAR06.
Setting [12] is: Unconfirmed VISA isolate 2014, 03MAR06.
[13] abbreviates: Unconfirmed VISA isolate 2015, 03MAR06.
[14] abbreviates: Unconfirmed VISA isolate 2016, 03MAR06.
Where [15] appears, read: Unconfirmed VISA isolate 2017, 03MAR06.
Where [16] appears, read: Unconfirmed VISA isolate 2019, 03MAR06.

Regarding `CC(=O)NC[C@H]1CN(c2ccc(N3CCOCC3)c(F)c2)C(=O)O1` [LZD, linezolid], the MIC worked out at 16 µg/mL in assay [1] (setting [7]); 32 µg/mL in assay [1] (setting [8]); 32 µg/mL in assay [1] (setting [9]); 1 µg/mL in assay [4] (VISA isolate 2012, 03MAR06); 2 µg/mL in assay [4] (VISA isolate 2018, 03MAR06); 4 µg/mL in assay [5] (setting [10]). The MIC in assay [6] (setting [11]) came out at 2 µg/mL; in assay [6] (setting [12]) it was 2 µg/mL; in assay [6] (setting [13]), 1 µg/mL; in assay [6] (setting [14]) it was 4 µg/mL; in assay [6] (setting [15]), 2 µg/mL; in assay [6] (setting [16]) it was 1 µg/mL. In addition, the results for the MIC50 in assay [1], in assay [4] and in assay [6] were 32 µg/mL, 1 µg/mL and 2 µg/mL, respectively. The “CLSI QC Range (MIC)” value in assay [2] and in assay [3] was 1 to 4 µg/mL in each case. Further, the “MIC Range” value in assay [4] lay within 1 to 2 µg/mL; in assay [6], 1 to 4 µg/mL.
Take `CN(C)c1ccc(O)c2c1C[C@H]1C[C@H]3[C@H](N(C)C)C(O)=C(C(N)=O)C(=O)[C@@]3(O)C(O)=C1C2=O` [MI, minocycline]: the figures for the “MIC Range” value in assay [1], in assay [4] and in assay [6] were 0.12 to 2 µg/mL, “.06 to 25 µg/mL” and “≦.015-2 μg/ml”, respectively. In addition, the MIC was determined as 0.12 µg/mL in assay [1] (setting [7]); 0.12 µg/mL in assay [1] (setting [8]); 2 µg/mL in assay [1] (setting [9]); 0.25 µg/mL in assay [4] (VISA isolate 2012, 03MAR06); 0.06 µg/mL in assay [4] (VISA isolate 2018, 03MAR06); 0.12 µg/mL in assay [5] (setting [10]). The MIC in assay [6] (setting [11]) is 0.12 µg/mL; in assay [6] (setting [12]), 2 µg/mL; in assay [6] (setting [13]), below 0.015 µg/mL; in assay [6] (setting [14]), 0.06 µg/mL; in assay [6] (setting [15]) it was 0.03 µg/mL; in assay [6] (setting [16]), 2 µg/mL. Also, the figures for the MIC50 in assay [1], in assay [4] and in assay [6] were 0.12 µg/mL, 0.06 µg/mL and 0.06 µg/mL, respectively.
With `CO[C@@H]1[C@@H](OC(N)=O)[C@@H](O)[C@H](Oc2ccc3c(O)c(NC(=O)c4ccc(O)c(CC=C(C)C)c4)c(=O)oc3c2C)OC1(C)C` [NB, novobiocin], the “MIC Range” value in assay [1] was 0.15 µg/mL; in assay [4], “≦.04-.08 μg/ml”; in assay [6], “≦.04-.15 μg/ml”. The MIC is 0.15 µg/mL in assay [1] (setting [7]); 0.15 µg/mL in assay [1] (setting [8]); 0.15 µg/mL in assay [1] (setting [9]); 0.08 µg/mL in assay [4] (VISA isolate 2012, 03MAR06); at most 0.04 µg/mL in assay [4] (VISA isolate 2018, 03MAR06); 0.08 µg/mL in assay [6] (setting [11]). The MIC in assay [6] (setting [12]) was 0.15 µg/mL; in assay [6] (setting [13]), at most 0.04 µg/mL; in assay [6] (setting [14]), at most 0.04 µg/mL; in assay [6] (setting [15]), 0.15 µg/mL; in assay [6] (setting [16]) it was at most 0.04 µg/mL. Further, the MIC50 is 0.15 µg/mL in assay [1], at most 0.04 µg/mL in assay [4] and at most 0.04 µg/mL in assay [6].
Turning to `Cc1onc(-c2ccccc2)c1C(=O)N[C@@H]1C(=O)N2[C@@H]1SC(C)(C)[C@@H]2C(=O)O` [OX, oxacillin], the “MIC Range” value in assay [1] and in assay [4] was above 32 µg/mL throughout. The MIC in assay [1] (setting [7]) was above 32 µg/mL; in assay [1] (setting [8]) it was above 32 µg/mL; in assay [1] (setting [9]) it was above 32 µg/mL; in assay [4] (VISA isolate 2012, 03MAR06), above 32 µg/mL; in assay [4] (VISA isolate 2018, 03MAR06) it was above 32 µg/mL; in assay [6] (setting [11]) it was 4 µg/mL. Also, the MIC in assay [6] (setting [12]) is above 32 µg/mL; in assay [6] (setting [13]) it was above 32 µg/mL; in assay [6] (setting [14]), 4 µg/mL; in assay [6] (setting [15]), 0.25 µg/mL; in assay [6] (setting [16]), above 32 µg/mL. Moreover, the MIC50 in assay [1] is above 32 µg/mL; in assay [4], above 32 µg/mL; in assay [6] it was 4 µg/mL. In addition, the “CLSI QC Range (MIC)” value was 8 to 32 µg/mL in assay [2] and 0.12 to 0.5 µg/mL in assay [3].
On to `CN(C)[C@@H]1C(O)=C(C(N)=O)C(=O)[C@@]2(O)C(O)=C3C(=O)c4c(O)cccc4[C@@](C)(O)[C@H]3C[C@@H]12` [TE, tetracycline], for which the MIC was 0.5 µg/mL in assay [1] (setting [7]); 0.5 µg/mL in assay [1] (setting [8]); above 16 µg/mL in assay [1] (setting [9]); 2 µg/mL in assay [4] (VISA isolate 2012, 03MAR06); 0.25 µg/mL in assay [4] (VISA isolate 2018, 03MAR06); 0.5 µg/mL in assay [5] (setting [10]). In addition, the MIC in assay [6] (setting [11]) is 0.5 µg/mL; in assay [6] (setting [12]), above 16 µg/mL; in assay [6] (setting [13]), 0.06 µg/mL; in assay [6] (setting [14]), 0.5 µg/mL; in assay [6] (setting [15]), 0.25 µg/mL; in assay [6] (setting [16]), above 16 µg/mL. The results for the MIC50 in assay [1], in assay [4] and in assay [6] were 0.5 µg/mL, 0.25 µg/mL and 0.5 µg/mL, respectively. Also, the “MIC Range” value in assay [4] was “.25 to 2 µg/mL”.
`CN[C@H](CC(C)C)C(=O)N[C@H]1C(=O)N[C@@H](CC(N)=O)C(=O)N[C@H]2C(=O)N[C@H]3C(=O)N[C@H](C(=O)N[C@H](C(=O)O)c4cc(O)cc(O)c4-c4cc3ccc4O)[C@H](O)c3ccc(c(Cl)c3)Oc3cc2cc(c3O[C@@H]2O[C@H](CO)[C@@H](O)[C@H](O)[C@H]2O[C@H]2C[C@](C)(N)[C@H](O)[C@H](C)O2)Oc2ccc(cc2Cl)[C@H]1O` [VA, vancomycin]: the results for the “MIC Range” value in assay [1], in assay [4] and in assay [6] were 0.5 to 1 µg/mL, 8 µg/mL and 4 µg/mL, respectively. Moreover, the MIC was 0.5 µg/mL in assay [1] (read-out: Minimal Inhibitory Concentration, LRSA isolate 1651, 24FEB06); 1 µg/mL in assay [1] (read-out: Minimal Inhibitory Concentration, LRSA isolate 1652, 24FEB06); 1 µg/mL in assay [1] (read-out: Minimal Inhibitory Concentration, LRSA isolate 1725, 24FEB06); 8 µg/mL in assay [4]; 0.5 µg/mL in assay [5] (ATCC29213, read-out: Minimal Inhibitory Concentration, quality control, S. aureus ATCC 29213, repeat runs 22FEB06-09MAR06, combinations at 2.5:1); 4 µg/mL in assay [6]. In addition, the “CLSI QC Range (MIC)” value in assay [2] was 1 to 4 µg/mL; in assay [3], 0.5 to 2 µg/mL. Besides, the “Minimal Inhibitory Concentration” value was determined as 8 µg/mL in assay [4] (VISA isolate 2018, 03MAR06); 4 µg/mL in assay [6] (setting [12]); 4 µg/mL in assay [6] (setting [13]); 4 µg/mL in assay [6] (setting [14]); 4 µg/mL in assay [6] (setting [15]); 4 µg/mL in assay [6] (setting [16]).

The values above are taken from patent US20070281992A1, “COMBINATION OF GYRASE B INHIBITORS AND PROTEIN SYNTHESIS INHIBITORS AND USES THEREOF” (priority 2006, published 2007).
